From patent US8012944B2, “Method for treating cancer using IAP antisense oligomer and chemotherapeutic agent” (Pharmascience Inc., priority 2003, dated 2011)

Key:
[1] = test system: HIAP1 mRNA; assay: HIAP1 mRNA in SF295 cells under cycloheximide induction (TaqMan); type: cell-based, human
Experimental: (§1) The effect of HIAP1 antisense nucleobase oligomers on HIAP1 protein and mRNA expression was also examined in cells induced to express HIAP1. SF295 cells were transfected with oligonucleotides, or were mock transfected. The transfected cells were then treated with 10 μg/ml cycloheximide for 24 hours to induce 70 kDa HIAP1 mRNA and protein. Protein levels were measured by western blot analysis with an anti-HIAP1 polyclonal antibody, and normalized against actin protein in a re-probing of the same blots. The densitometric scan results were plotted against the mock results (set at 100%) in FIG. 22B. […] The transfection process itself (e.g., mock or scrambled survivin) induces HIAP1 protein compared to the untreated sample as shown on the western immunoblot.
Controls for this experiment were three oligonucleotides for APO 2: one scrambled sequence (same base composition but random order, 5′-AAGGGCGGCGGAGTGAGAC-3′; SEQ ID NO: 297), one reverse polarity (same base composition, same sequential order but in the opposite direction, 5′-AGAGGACGGAGTCGGAGGC-3′; SEQ ID NO: 298), and one mismatch sequence (containing four base mismatches out of 19 bases, 5′-CGGAGCGTGAGGATGGAGA-3′; SEQ ID NO: 299).

[2] = test system: HIAP1 protein; assay: HIAP1 protein in cycloheximide-induced SF295 cells (western blot); type: cell-based, human
Excerpt: HIAP1 was detected on a western immunoblot using an affinity-purified anti-rat HIAP1 rabbit polyclonal antibody as a primary antibody and was detected by ECL (Amersham) on X-ray film with a secondary horseradish-peroxidase-conjugated anti-rabbit Ig antibody and a chemiluminescent substrate. The anti-HIAP1 polyclonal antibody is raised against a GST-fusion of the rat HIAP1. This antibody cross-reacts with both human and murine HIAP1 and HIAP2.
as §1

[3] = test system: HIAP1 mRNA; assay: HIAP1 mRNA in SF295 cells, basal conditions (TaqMan); type: cell-based, human; parameters: decrease of HIAP1 mRNA compared to mock or scrambled survivin control: concentration or dose not given beside the values
Experimental: RNA was extracted from cells lysed in RLT buffer (QIAGEN, Valencia, Calif.), and purified using QIAGEN RNeasy columns/kits. Real-time quantitative PCR was performed on a Perkin-Elmer ABI 7700 Prism PCR machine. RNA was reverse transcribed and amplified according to the TaqMan Universal PCR Master Mix protocol of PE Biosystems, using primers and probes designed to specifically recognize XIAP, HIAP1, survivin, or GAPDH. For human survivin, the forward primer was 5′-[…]-3′ (SEQ ID NO: 263), the reverse primer was 5′-GAAAGGAAAGCGCAACCG-3′ (SEQ ID NO: 264), and the probe was 5′-(FAM)[…](TAMRA)-3′ (SEQ ID NO: 265). For human HIAP1, the forward primer was 5′-[…]-3′ (SEQ ID NO: 266), the reverse primer was 5′-[…]-3′ (SEQ ID NO: 267), and the probe was 5′-(FAM)[…](TAMRA)-3′ (SEQ ID NO: 268). For human XIAP, the forward primer was 5′-[…]-3′ (SEQ ID NO: 269), the reverse primer was 5′-[…]-3′ (SEQ ID NO: 270), and the probe was 5′-(FAM)[…](TAMRA)-3′ (SEQ ID NO: 271). For human GAPDH, the forward primer was 5′-GAAGGTGAAGGTCGGAGTC-3′ (SEQ ID NO: 272), the reverse primer was 5′-GAAGATGGTGATGGGATTC-3′ (SEQ ID NO: 273), and the probe was 5′-(JOE)[…](TAMRA)-3′ (SEQ ID NO: 274). FAM is 6-carboxyfluoroscein, JOE is 6-carboxy-4,5-dichloro-2,7-dimethoxyfluoroscein, and TAMRA is 6-carboxy-N,N,N′,N′-tetramethylrhodamine. FAM and JOE are 5′ reporter dyes, while TAMRA is a 3′ quencher dye.
Relative quantification of gene expression was performed as described in the PE Biosystems manual using GAPDH as an internal standard. The comparative Ct (cycle threshold) method was used for relative quantitation of IAP mRNA levels compared to GAPDH mRNA levels. Briefly, real-time fluorescence measurements were taken at each PCR cycle and the threshold cycle (Ct) value for each sample was calculated by determining the point at which fluorescence exceeded a threshold limit of 30 times the baseline standard deviation. The average baseline value and the baseline SD are calculated starting from the third cycle baseline value and stopping at the baseline value three cycles before the signal starts to exponentially rise. The PCR primers and/or probes for the specific IAPs were designed to span at least one exon-intron boundary separated by 1 kb or more of genomic DNA, to reduce the possibility of amplifying and detecting genomic DNA contamination. The specificity of the signal, and possible contamination from DNA, were verified by treating some RNA samples with either DNase or RNase, prior to performing the reverse transcription and PCR reaction steps.
A library of 15 HIAP1 antisense nucleobase oligomers as oligonucleotides was screened for protein knock-down by western blot analysis and for RNA knock-down by TaqMan, using the primers and probes described in Example 3, above, under two different conditions. HIAP1 RNA levels may be detected using standard Northern blot analyses or RT-PCR techniques. The antisense oligonucleotides were administered to cells under basal conditions or under cycloheximide-induction conditions (24 hour treatment with sub-toxic doses). Cycloheximide (CHX) can lead to a 10- to 200-fold induction of HIAP1 mRNA depending on the cell line treated. […] This effect of CHX is via two distinct mechanisms of action. First, CHX activates NFkB, a known transcriptional inducer of HIAP1, by blocking the de novo synthesis of a labile protein, IkB, which is an inhibitor of NFkB. This effect is mimicked by puromycin, another protein synthesis inhibitor, and by TNF-alpha, which induces a signaling cascade leading to the phosphorylation, ubiquination, and degradation of IkB.
SF295 glioblastoma cells were transfected with lipofectin and oligonucleotide (scrambled survivin, no oligonucleotide, antisense APO 1 to APO 15) or left untreated. […]

[4] = test system: XIAP mRNA; assay: XIAP mRNA knock-down in H460 cells (real-time RT-PCR / TaqMan); type: cell-based, human
Method in brief: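 NCI-H460 cells transfected with phosphorothioate antisense oligonucleotides via Lipofectamine 2000; RNA isolated after 6 h treatment. XIAP mRNA quantified by one-step TaqMan real-time RT-PCR, comparative Ct (threshold 30× baseline SD), normalized to GAPDH and expressed relative to untreated control cells.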

[5] = test system: XIAP protein; assay: XIAP protein knock-down in H460 cells (western blot, densitometry); type: cell-based, human
Experimental: FIGS. 3 and 4 are graphs showing the effects of 4×4 mixed backbone (MBO) FG8 or E12 oligonucleotides in amounts of 31 nM (FIG. 3) or 63 nM (FIG. 4). H460 lung carcinoma cells were transfected for 18 hours on one, two, or three consecutive days using 125 nM MBOs and Lipofectamine 2000. Samples for western analysis were harvested at the indicated time. Scanning densitometry was performed, and XIAP protein levels were normalized to GAPDH and compared to a mock control set to 100%. The indicated percentages express % XIAP protein knockdown versus specific scrambled controls.
One day prior to transfection, H460 cells were plated in 6- or 96-well tissue culture plates. Phosphorothioate antisense oligonucleotides were delivered into cells with Lipofectamine 2000 (Life Technologies) in the form of liposome-oligonucleotide complexes. Following a 4.5 or 6 h transfection, the transfection medium was replaced with RPMI medium containing 10% FBS, and the cells incubated for another 24 or 48 h.
The cells or tumor tissue samples were lysed with ice-cold lysis buffer (50 mM Tris, 150 mM NaCl, 2.5 mM EDTA, 0.1% SDS, 0.5% sodium deoxycholate, 1% NP-40, 0.02% sodium azide) containing protease inhibitors (Complete-Mini protease inhibitor tablets; Boehringer Mannheim GmBH, Mannheim, Germany). After incubation for 30 min on ice, samples were centrifuged at 10,000 rpm for 15 min, and stored at −20° C. Protein content in the lysed extracts was determined using a detergent-compatible Bio-Rad assay (Bio-Rad Labs, Hercules, Calif.). Equal amounts of protein (40 μg/lane) were separated on 12% SDS-polyacrylamide gels or 4-15% gradient SDS-polyacrylamide pre-made gels (Bio-Rad) and transferred to nitrocellulose membranes. Primary antibodies against XIAP, Bcl-2 (DAKO, Glostrup, Denmark), Bax (Sigma, St. Louis, Mo.), β-actin (Sigma), caspase-3 (BD PharMingen, San Diego, Calif.), and PARP (BD PharMingen) were used. The secondary antibody was the appropriate horseradish-conjugated anti-mouse or anti-rabbit IgG (Promega, Madison, Wis.). Proteins were detected by enhanced chemiluminescence (ECL; Amersham Pharmacia Biotech, Buckinghamshire, England) and visualized after exposure to Kodak autoradiography film. Scanning densitometry (Molecular Dynamics, Sunnyvale, Calif.) was performed to quantify band intensities by volume/area integration. The amount of XIAP, caspase-3, Bcl-2 and Bax in cells was normalized to their respective lane β-actin levels, upon stripping and reprobing.

[6] = test system: MDA-MB-435/LCC6 human breast carcinoma xenografts; assay: Systemic (i.p.) PS-oligonucleotides in LCC6 breast carcinoma xenografts; type: in vivo, female SCID-RAG2 mice; settings: 12.5 mg/kg i.p.; day 35, two weeks after the last treatment
Experimental: Initial systemic PS-oligonucleotide studies were designed without any chemotherapeutic agents. SCID-RAG2 mice were inoculated with H460 human lung carcinoma cells (s.c. shoulder injection of 10^6 cells) and treatments with G4 and F3 AS PS-oligonucleotides, as well as a scrambled control, were initiated three days after tumor inoculation. Nucleobase oligomer injections were administered i.p. at 12.5 mg/kg three times a week for three weeks. At the end of the treatment period, mean tumor sizes in the groups treated with either G4 or F3 AS oligonucleotides were ˜50% smaller than in the group treated with a scrambled control oligonucleotides (FIG. 15). The same treatment protocol was tested on female SCID-RAG2 mice inoculated orthotopically with MDA-MB-435/LCC6 human breast carcinoma cells. Two weeks after the last treatment (day 35) tumor volumes of mice treated with F3, C5 or G4 AS oligonucleotides were 70%, 60%, and 45%, respectively, smaller than vehicle controls (FIG. 16).
Efficacy experiments were conducted in male RAG2 immunodeficient mice bearing NCI-H460 tumours or female RAG2 mice bearing LCC6 tumors. Treatments were commenced on day 3 after tumor inoculation. Saline (controls), G4 AS oligonucleotides (5 or 15 mg/kg), or G4 SC oligonucleotides (5 or 15 mg/kg) were administered i.p. daily for five doses a week over a three week regimen. Vinorelbine (VNB, 5 or 10 mg/kg) was administered i.v. via the tail vein, either alone or in combination with oligonucleotides, at day 3, 7, 11 and 17 after tumor inoculation. When oligonucleotides were administered in combination with VNB, the drug treatment was performed four hours after ODN treatment.

Substance: 5′-AAGGGCGGCGGAGTGAGAC-3′ (listed as DNA, chemistry not given here) [H1 sc apo 2, reference compound]
- effect on HIAP1 mRNA (and protein) under CHX induction (in words) [1]: did not change HIAP1 mRNA levels at all

Substance: TCATTTGAGCCTGGGAGGT (chemistry not given here) [APO 1]
- activity in the HIAP1 protein and mRNA assays [2]: high activity, or had significant activity in both the protein and mRNA assays
- HIAP1 mRNA levels (in words) ([3]; SF295 cells (FIG. 21)): did not cause a stress-induced increase in HIAP1 mRNA
- decrease of HIAP1 mRNA compared to mock or scrambled survivin control ([3]; SF295 cells, six hours after transfection): ~50%

Substance: TGTCAGTACATGTTGGCTC (antisense; chemistry not fully specified) [Code E12]
- XIAP down-regulation H460 RNA [4]: 74%
- effect on XIAP protein levels (in words) [5]: significantly reduced XIAP protein levels

Substance: mUmGmCmACCCTGGATACCmAmUmUmU (antisense NGCACCCNGGANACCANNN; 2'-O-methyl modifications, chemistry not fully specified) [FG8]
- effect on XIAP protein levels (in words) [5]: significantly reduced XIAP protein levels

Substance: ACCATTCTGGATACCAGAA (chemistry not fully specified) [C5 AS]
- effect on XIAP protein levels (in words) [5]: did not show sequence specific effects
- tumor volumes smaller than vehicle controls [6]: 60%
